Converted amounts (≈) assume the structure as drawn.
How the values were obtained:
[1] = test system: Micrococcus luteus; assay: Antibacterial activity Micrococcus luteus NBRC 333 assessed as inhibition of bacterial growth after 48 hrs by two fold dilution method; assay type: functional
[2] = test system: Bacillus subtilis; assay: Antibacterial activity Bacillus subtilis NBRC 3757 assessed as inhibition of bacterial growth after 48 hrs by two fold dilution method; assay type: functional
[3] = test system: Staphylococcus epidermidis; assay: Antibacterial activity Staphylococcus epidermidis NBRC 12993 assessed as inhibition of bacterial growth after 48 hrs by two fold dilution method; assay type: functional
[4] = test system: Staphylococcus aureus; assay: Antibacterial activity methicillin-sensitive Staphylococcus aureus ATCC 25923 assessed as inhibition of bacterial growth after 24 hrs by NCCLS protocol based microdilution method; assay type: functional
[5] = test system: Staphylococcus aureus; assay: Antibacterial activity methicillin-resistant Staphylococcus aureus ATCC 44330 assessed as inhibition of bacterial growth after 24 hrs by NCCLS protocol based microdilution method; assay type: functional
[6] = test system: Staphylococcus aureus; assay: Antibacterial activity methicillin-sensitive Staphylococcus aureus ATCC 29213 assessed as inhibition of bacterial growth by CLSI based microbroth dilution assay; assay type: functional
[7] = test system: Staphylococcus aureus; assay: Antibacterial activity methicillin-resistant Staphylococcus aureus USA300 assessed as inhibition of bacterial growth by CLSI based microbroth dilution assay; assay type: functional
[8] = test system: Bacillus anthracis; assay: Antibacterial activity Bacillus anthracis Sterne 34F2 assessed as inhibition of bacterial growth by CLSI based microbroth dilution assay; assay type: functional
[9] = test system: Staphylococcus aureus; assay: Antibacterial activity methicillin-resistant Staphylococcus aureus ATCC 700699 assessed as inhibition of bacterial growth incubated for 16 hrs by CLSI protocol based microdilution method; assay type: functional
[10] = test system: Staphylococcus aureus; assay: Antibacterial activity Staphylococcus aureus ATCC 25923 assessed as inhibition of bacterial growth incubated for 16 hrs by CLSI protocol based microdilution method; assay type: functional
[11] = test system: Staphylococcus aureus; assay: Antibacterial activity Staphylococcus aureus ATCC 29213 assessed as inhibition of bacterial growth incubated for 16 hrs by CLSI protocol based microdilution method; assay type: functional
[12] = test system: Staphylococcus aureus; assay: Antibacterial activity Staphylococcus aureus ATCC 33592 assessed as inhibition of bacterial growth incubated for 16 hrs by CLSI protocol based microdilution method; assay type: functional
[13] = test system: Salmonella typhimurium; assay: Antimicrobial activity against Salmonella typhimurium assessed as bacterial growth inhibition incubated for 18 hrs by broth micro dilution method; assay type: functional, Salmonella enterica subsp. enterica serovar Typhimurium; conditions: Salmonella enterica
[14] = test system: Staphylococcus aureus; assay: Antimicrobial activity against Staphylococcus aureus assessed as bacterial growth inhibition incubated for 18 hrs by broth micro dilution method; assay type: functional
[15] = test system: Streptococcus pyogenes; assay: Antimicrobial activity against Streptococcus pyogenes assessed as bacterial growth inhibition incubated for 18 hrs by broth micro dilution method
[16] = test system: Escherichia coli; assay: Antimicrobial activity against Escherichia coli assessed as bacterial growth inhibition incubated for 18 hrs by broth micro dilution method; assay type: functional
[17] = test system: Staphylococcus aureus; assay: Antibacterial activity methicillin-resistant Staphylococcus aureus MRSA B-10760 assessed as inhibition of bacterial growth incubated for 16 to 24 hrs by broth microdilution assay; assay type: functional; conditions: time 16-24 hrs
[18] = test system: Staphylococcus aureus; assay: Antibacterial activity methicillin-resistant Staphylococcus aureus MRSA ST-5457 assessed as inhibition of bacterial growth incubated for 16 to 24 hrs by broth microdilution assay; assay type: functional; conditions: time 16-24 hrs
[19] = test system: Staphylococcus aureus; assay: Antibacterial activity methicillin-resistant Staphylococcus aureus MRSA ST-2071 assessed as inhibition of bacterial growth incubated for 16 to 24 hrs by broth microdilution assay; assay type: functional; conditions: time 16-24 hrs
[20] = test system: Staphylococcus aureus; assay: Antibacterial activity methicillin-resistant Staphylococcus aureus MRSA P-6642 assessed as inhibition of bacterial growth incubated for 16 to 24 hrs by broth microdilution assay; assay type: functional; conditions: time 16-24 hrs
[21] = test system: Staphylococcus aureus; assay: Antibacterial activity methicillin-resistant Staphylococcus aureus MRSA ST-3151 assessed as inhibition of bacterial growth incubated for 16 to 24 hrs by broth microdilution assay; assay type: functional; conditions: time 16-24 hrs
[22] = test system: Staphylococcus aureus; assay: Antibacterial activity methicillin-resistant Staphylococcus aureus MRSA ST-10342 assessed as inhibition of bacterial growth incubated for 16 to 24 hrs by broth microdilution assay; assay type: functional; conditions: time 16-24 hrs
[23] = test system: Staphylococcus aureus; assay: Antibacterial activity methicillin-resistant Staphylococcus aureus MRSA ST-2438 assessed as inhibition of bacterial growth incubated for 16 to 24 hrs by broth microdilution assay; assay type: functional; conditions: time 16-24 hrs
[24] = test system: Staphylococcus aureus; assay: Antibacterial activity methicillin-resistant Staphylococcus aureus MRSA ST-1745 assessed as inhibition of bacterial growth incubated for 16 to 24 hrs by broth microdilution assay; assay type: functional; conditions: time 16-24 hrs
[25] = test system: Staphylococcus aureus; assay: Antibacterial activity methicillin-resistant Staphylococcus aureus MRSA B-10732 assessed as inhibition of bacterial growth incubated for 16 to 24 hrs by broth microdilution assay; assay type: functional; conditions: time 16-24 hrs
[26] = test system: Staphylococcus aureus; assay: Antibacterial activity methicillin-resistant Staphylococcus aureus MRSA P-8029 assessed as inhibition of bacterial growth incubated for 16 to 24 hrs by broth microdilution assay; assay type: functional; conditions: time 16-24 hrs
[27] = molecular target: DNA gyrase (Staphylococcus aureus, UniProt P0A0K8+P20831); assay: Inhibition of Staphylococcus aureus DNA gyrase; assay type: protein-complex assay
DNA gyrase, sequence (P0A0K8 whole entry): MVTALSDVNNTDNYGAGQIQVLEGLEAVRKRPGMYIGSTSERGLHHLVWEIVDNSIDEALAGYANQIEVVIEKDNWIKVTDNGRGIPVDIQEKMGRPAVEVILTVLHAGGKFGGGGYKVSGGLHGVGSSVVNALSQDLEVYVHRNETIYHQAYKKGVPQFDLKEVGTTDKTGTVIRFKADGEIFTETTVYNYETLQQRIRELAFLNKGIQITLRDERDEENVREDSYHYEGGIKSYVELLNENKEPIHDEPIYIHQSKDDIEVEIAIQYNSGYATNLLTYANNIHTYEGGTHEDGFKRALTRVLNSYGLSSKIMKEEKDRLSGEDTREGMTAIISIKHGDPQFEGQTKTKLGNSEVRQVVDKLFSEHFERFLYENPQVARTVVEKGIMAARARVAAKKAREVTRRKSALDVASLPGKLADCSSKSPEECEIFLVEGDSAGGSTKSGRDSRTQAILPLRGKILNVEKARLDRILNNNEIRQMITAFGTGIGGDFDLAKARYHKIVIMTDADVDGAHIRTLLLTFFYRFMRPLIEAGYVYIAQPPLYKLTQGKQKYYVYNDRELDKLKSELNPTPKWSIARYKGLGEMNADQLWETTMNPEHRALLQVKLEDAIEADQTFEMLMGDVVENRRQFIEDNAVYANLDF
DNA gyrase, sequence (P20831 whole entry): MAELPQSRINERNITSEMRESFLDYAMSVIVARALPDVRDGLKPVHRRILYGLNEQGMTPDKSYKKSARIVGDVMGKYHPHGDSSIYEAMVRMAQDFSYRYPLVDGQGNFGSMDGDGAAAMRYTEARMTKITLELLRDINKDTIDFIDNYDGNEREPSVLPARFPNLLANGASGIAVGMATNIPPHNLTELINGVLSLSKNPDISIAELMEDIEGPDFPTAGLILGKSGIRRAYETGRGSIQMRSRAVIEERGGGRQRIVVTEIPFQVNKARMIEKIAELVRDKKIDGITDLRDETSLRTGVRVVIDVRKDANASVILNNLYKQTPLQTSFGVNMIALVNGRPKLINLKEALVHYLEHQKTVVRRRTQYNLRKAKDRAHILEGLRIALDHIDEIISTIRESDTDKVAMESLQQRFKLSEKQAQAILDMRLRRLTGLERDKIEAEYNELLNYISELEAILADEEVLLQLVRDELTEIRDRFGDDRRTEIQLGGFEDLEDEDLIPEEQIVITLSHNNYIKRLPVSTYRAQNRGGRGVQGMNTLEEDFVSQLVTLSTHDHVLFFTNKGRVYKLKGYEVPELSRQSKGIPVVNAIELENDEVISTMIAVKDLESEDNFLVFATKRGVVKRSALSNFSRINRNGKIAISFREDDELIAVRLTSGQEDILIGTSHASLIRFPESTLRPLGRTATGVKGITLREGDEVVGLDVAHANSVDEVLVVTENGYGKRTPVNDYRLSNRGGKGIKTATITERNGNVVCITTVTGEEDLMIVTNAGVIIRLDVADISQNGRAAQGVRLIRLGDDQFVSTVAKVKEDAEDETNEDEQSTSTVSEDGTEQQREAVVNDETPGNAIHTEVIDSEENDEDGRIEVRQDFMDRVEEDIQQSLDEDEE

[28] = test system: Staphylococcus aureus; assay: Antibacterial activity Staphylococcus aureus assessed as inhibition of bacterial growth by […] dye based colorimetric method; assay type: functional
[29] = test system: Streptococcus pyogenes; assay: Antibacterial activity Streptococcus pyogenes assessed as inhibition of bacterial growth by […] dye based colorimetric method; assay type: functional
[30] = test system: Escherichia coli; assay: Antibacterial activity Escherichia coli assessed as inhibition of bacterial growth by […] dye based colorimetric method; assay type: functional
[31] = test system: Staphylococcus aureus; assay: Antimicrobial activity against Staphylococcus aureus MTCC 1430 assessed as bacterial growth inhibition incubated for 24 hrs by broth micro dilution method; assay type: functional
[32] = test system: Escherichia coli; assay: Antimicrobial activity against Escherichia coli MTCC 1573 assessed as bacterial growth inhibition incubated for 24 hrs by broth micro dilution method; assay type: functional
[33] = test system: Bacillus subtilis; assay: Antimicrobial activity against Bacillus subtilis MTCC 441 assessed as bacterial growth inhibition incubated for 24 hrs by broth micro dilution method; assay type: functional
[34] = test system: Pseudomonas aeruginosa; assay: Antimicrobial activity against Pseudomonas aeruginosa MTCC 424 assessed as bacterial growth inhibition incubated for 24 hrs by broth micro dilution method; assay type: functional
[35] = test system: Klebsiella pneumoniae; assay: Antibacterial activity Klebsiella pneumoniae K4 assessed as inhibition of bacterial growth incubated for 24 hrs by microbroth dilution assay; assay type: functional
[36] = test system: Pseudomonas aeruginosa; assay: Antibacterial activity Pseudomonas aeruginosa Ps12 assessed as inhibition of bacterial growth incubated for 24 hrs by microbroth dilution assay; assay type: functional
[37] = molecular target: DNA; assay: Binding affinity to DNA (unknown origin) assessed as DNA intercalation by measuring amount of methyl green dye replaced from DNA-methyl green complex after 24 hrs by colourimetric assay; assay type: nucleic-acid assay
[38] = test system: Mycolicibacterium smegmatis; assay: Antimycobacterial activity against Mycobacterium smegmatis ATCC 607 assessed as bacterial growth inhibition incubated for 48 hrs by resazurin dye based assay; assay type: functional
[39] = test system: Mycobacterium tuberculosis; assay: Antimycobacterial activity against Mycobacterium tuberculosis H37Rv CNCTC My 331/88 assessed as bacterial growth inhibition incubated for 5 days by resazurin dye based assay; assay type: functional; conditions: H37Rv CNCTC My 331/88, 120 h, time 5 day
[40] = test system: Mycobacterium kansasii; assay: Antimycobacterial activity against Mycobacterium kansasii CNCTC My 235/80 assessed as bacterial growth inhibition incubated for 5 days by resazurin dye based assay; assay type: functional; conditions: CNCTC My 235/80, 120 h, time 5 day

Compound `COc1cc(O)c(C(=O)/C=C/c2ccc(O)cc2)cc1CC=C(C)C` has an MIC [1] of 4 µg/mL (≈ 11.8 µM), an MIC [2] of 4 µg/mL (≈ 11.8 µM) and an MIC [3] of 4 µg/mL (≈ 11.8 µM).

Work on `O=C(/C=C/c1ccccc1O)c1cccs1` yielded an MIC [4] of 32 µg/mL (≈ 139 µM) and an MIC [5] of 64 µg/mL (≈ 278 µM).

Work on `O=C(/C=C/c1ccc(N2CCCCC2)cc1)c1ccc(O)cc1O` yielded an MIC [6] of 3.12 µg/mL (≈ 9.66 µM) and an MIC [7] of 3.12 µg/mL (≈ 9.66 µM).

`COc1ccc(C(=O)/C=C/c2ccc(F)cc2)cc1` was tested, and the MIC [8] was 12.5 µg/mL (≈ 48.8 µM).

`COc1ccc(-c2csc(/N=C/c3cc(/C=C/C(=O)c4ccc(C)cc4)cc(C(C)(C)C)c3O)n2)cc1OC` showed an MIC [9] of 11.6 µg/mL (≈ 21.5 µM), an MIC [10] of 5.8 µg/mL (≈ 10.7 µM) and an MIC [11] of 5.8 µg/mL (≈ 10.7 µM). The MIC [12] was 1.4 µg/mL (≈ 2.59 µM).

With `COc1ccc(C(=O)/C=C/c2ccc(O)cc2)c(O)c1CC=C(C)C` the MIC [1] was 2 µg/mL (≈ 5.91 µM), the MIC [2] was 2 µg/mL (≈ 5.91 µM) and the MIC [3] was 2 µg/mL (≈ 5.91 µM).

Compound `Cc1cc(C(=O)/C=C/c2c(C)cn(-c3ccccc3)c2C)c(C)s1` has an MIC [13] of 16 µg/mL (≈ 47.7 µM), an MIC [14] of 32 µg/mL (≈ 95.4 µM) and an MIC [15] of 32 µg/mL (≈ 95.4 µM). For the same compound, the MIC [16] was 16 µg/mL (≈ 47.7 µM).

Compound `Cc1cc(C(=O)/C=C/c2ccc(Cl)cc2)ccc1O` has an MIC [8] of 12.5 µg/mL (≈ 45.8 µM).

With `COc1ccc(/C=C/C(=O)c2ccc(O)c(C)c2)cc1Br` the MIC [8] was 1.56 µg/mL (≈ 4.49 µM).

Work on `O=C(/C=C/c1c[nH]c2ccccc12)c1cccc(OCc2ccccc2)c1` yielded an MIC [17] of 12.5 µg/mL (≈ 35.4 µM), an MIC [18] of 12.5 µg/mL (≈ 35.4 µM) and an MIC [19] of 12.5 µg/mL (≈ 35.4 µM). For the same compound, the MIC [20] was 12.5 µg/mL (≈ 35.4 µM), the MIC [21] was 12.5 µg/mL (≈ 35.4 µM) and the MIC [22] was 12.5 µg/mL (≈ 35.4 µM). The MIC [23] was 12.5 µg/mL (≈ 35.4 µM), the MIC [24] was 12.5 µg/mL (≈ 35.4 µM) and the MIC [25] was 12.5 µg/mL (≈ 35.4 µM). It also gave an MIC [26] of 12.5 µg/mL (≈ 35.4 µM).

`Cc1c(Cl)ccc2cc(/C=C/C(=O)c3ccc(Br)cc3)c(Cl)nc12` showed an IC50 [27] of 332 nM, an MIC [28] of 125 µg/mL (≈ 297 µM) and an MIC [29] of 125 µg/mL (≈ 297 µM). For the same compound, the MIC [30] was 125 µg/mL (≈ 297 µM).

With `CSc1ccc(/C=C/C(=O)c2nnn(-c3c(C)c(C(F)(F)F)cc(Cl)c3Cl)c2C)cc1` the MIC [31] was 6.25 µg/mL (≈ 12.9 µM), the MIC [32] was 3.12 µg/mL (≈ 6.42 µM) and the MIC [33] was 3.12 µg/mL (≈ 6.42 µM). It also gave an MIC [34] of 12.5 µg/mL (≈ 25.7 µM).

`COc1cc(C(CC(=O)c2ccc(C)cc2)SC(=S)N2CCOCC2)cc(OC)c1OC` (stereo not drawn) gave an MIC [35] of 8 µg/mL (≈ 16.8 µM) and an MIC [36] of 8 µg/mL (≈ 16.8 µM).

Compound `COc1ccc(C(=O)CC(SC(=S)N2CCOCC2)c2ccc(OC)c(OC)c2)cc1` (stereo not drawn) has an IC50 [37] of 27.48 µg/mL (≈ 59.5 µM), an MIC [35] of 32 µg/mL (≈ 69.3 µM) and an MIC [36] of 32 µg/mL (≈ 69.3 µM).

For `CC(C)(C)c1cnc(C(=O)/C=C/c2ccccc2Cl)cn1`, the MIC [38] was 3.9 µg/mL (≈ 13 µM), the MIC [39] was 3.13 µg/mL (≈ 10.4 µM) and the MIC [40] was 25 µg/mL (≈ 83.1 µM).

In the case of `COc1cc(C(CC(=O)c2ccc(C)cc2)SC(=S)N2CCN(Cc3ccccc3)CC2)cc(OC)c1OC` (stereo not drawn), the IC50 [37] is reported as 30.97 µg/mL (≈ 54.8 µM), the MIC [35] is reported as 64 µg/mL (≈ 113 µM) and the MIC [36] is reported as 32 µg/mL (≈ 56.7 µM).

In the case of `CC(C)(C)c1cnc(C(=O)/C=C/c2ccccc2F)cn1`, the MIC [38] is reported as > 500 µg/mL, the MIC [39] is reported as 6.25 µg/mL (≈ 22 µM) and the MIC [40] is reported as 12.5 µg/mL (≈ 44 µM).
